From US7414070B2, “Indol-7-YL sulfonamide derivatives, their preparation and their use in pharmaceutical compositions” (Laboratorios del Dr. ESTEVE S.A., priority 2003, dated 2008)
Where a name gives a salt, the structure may show the parent alone.

melting point	SMILES
73 to 76 °C	CN(C)CCn1ccc2cccc(NS(=O)(=O)c3c(Cl)nc4sccn34)c21 [Example 4, N-[1-(2-dimethylaminoethyl)-1H-indole-7-yl]-6-chloroimidazo[2,1-b]thiazole-5-sulfonamide]
92 to 95 °C	O=S(=O)(Nc1cccc2ccn(CCN3CCCC3)c12)c1c(Cl)nc2sccn12 (as salt: TFA) [Example 7, 6-chloro-N-(1-(2-(pyrrolidin-1-yl)ethyl)-1H-indol-7-yl)imidazo[2,1-b]thiazole-5-sulfonamide]
57 to 65 °C	Cc1c(S(=O)(=O)Nc2cccc3ccn(CCN(C)C)c23)sc2ccc(Cl)cc12 [Example 2, N-[1-(2-dimethylaminoethyl)-1H-indole-7-yl]-5-chloro-3-methyl-benzo[b]thiophene-2-sulfonamide]

The next lines start with the compound.

SMILES	melting point
O=S(=O)(Nc1cccc2ccn(CCN3CCCC3)c12)c1cccc2ccccc12 [Example 6, N-(1-(2-(pyrrolidin-1-yl)ethyl)-1H-indol-7-yl)naphthalene-1-sulfonamide]	196 to 199 °C
CN(C)CCn1ccc2cccc(NS(=O)(=O)c3ccc(-c4ccccc4)cc3)c21 [Example 3, N-[1-(2-dimethylaminoethyl)-1H-indole-7-yl]-4 phenylbenzenesulfonamide]	137 to 140 °C
O=S(=O)(CCc1cccc2ccccc12)Nc1cccc2ccn(CCN3CCCC3)c12 [Example 8, 2-(naphth-1-yl)-N-(1-(2-(pyrrolidin-1-yl)ethyl)-1H-indol-7-yl)ethansulfonamide]	46 to 49 °C
